# From patent US20260166084A1, “NOVEL DRUG-INDUCIBLE DEGRADATION TAGS” (THE INSTITUTE OF CANCER RESEARCH: ROYAL CANCER HOSPITAL, priority 2022, published 2026)
# “Also recorded” adds a separate entry of the source.
# Experiments:
# [1] = tested on: degron containing domains (DCDs); assay: Degradation matrix of DCD tags with IMiD/CELMoD panel by flow cytometry; format: cell-based; settings: panel of IMiD/CELMoD small molecules, FIG. 1
# Excerpt: FIG. 1: Experimental evaluation of the DCD tags. (a) Heat map summary of the degradation matrix data of all the DCDs tested in flow cytometry experiments. Normalized values were represented in the Log 2 Fold Change relative to the DMSO control. […] (b) Representation of iTAG1-DCD23 (60 aa). The 2 Cys and 2 His from the C2H2 zinc finger motif are highlighted in light grey. The crucial Glycine in the b-hairpin loop degron is highlighted in bold dark grey.
# To address the limitations of the currently available protein modulation tools, the inventors developed a novel and robust system for targeted protein degradation by exploiting the fusion of an IMiD/CeLMOD recognition sequence to a protein of interest. […] This 60 amino acid sequence is referred to as iTAG1 (DCD23) herein.
# Construct expression was induced by treating cells with 1 μg/ml DOX for 24 h. The cells were treated with IMiDs/CELMoDs at concentrations and time-points indicated for each experimental setting. Cells were collected, on ice, in sterile 5 ml polystyrene round-bottom tubes. DAPI (4′,6-diamidino-2-phenylindole; ThermoFisher Scientific) was added to the cell suspension at a ratio of 1:1000, as a marker for cell viability. The EGFP signal was measured on the BD LSR II flow cytometer (BD Biosciences). Further processing of the results was performed using FlowJo 10 Software (FlowJo).
# [2] = tested on: SupT1 cells transduced to express human B7H3; assay: CAR functionality: cytokine ELISA after co-culture with SupT1-B7H3 targets; format: cell-based; settings: primary human T cells
# Excerpt: To evaluate whether the brighter CAR expression of iTAG2 tagged CAR compared with DCD23-tagged CAR translated into greater effector function, the respective CAR-T populations from the two independent donors were co-cultured overnight with human SupT1 leukaemia target cells isogenic for the target antigen B7H3. Wild type SupT1 have no detectable B7H3 expression. Following overnight culture of T cells with the targets, culture supernatant was harvested and evaluated for inflammatory cytokines interferon gamma and Interleukin-2 by ELISA (FIG. 9).
# (§1) CAR expression in PBMC-derived T cells following degradation with 10, 1, 0.1, 0.01, 0.001 or 0 uM iberdomide after 24 hours, was assessed by flow cytometry. To assess CAR functionality+/−degrader tag, transduced T cells were cultured 24 hours with SUPT1+/−B7H3 at a 1:1 ratio. Supernatant was harvested, and IL-2 and IFNγ levels determined by ELISA.
# [3] = tested on: HMEC cells; assay: Nuclear localisation by immunofluorescence in HMEC; format: cell-based, human; settings: fluorescence microscopy, FIG. 3b and 13
# Experimental: To determine localisation of “superdegron” which has a degree of homology with iTAG1, the inventors cloned superdegron into the expression vector to replace iTAG1 as the degron fused with GFP.
# HMEC cells were seeded in glass bottom 96-well plates (Perkin Elmer) at a 1000 cells/well and treated with 1 μg/ml DOX for 24 h to induce construct. Cells were fixed using 4% paraformaldehyde in PBS solution for 15 min at 37° C. and permeabilised with 0.05% Titon-X-100 detergent for 10 min at room temperature. Prior to proceeding to cell imaging, the cells were incubated for a min with 1 μg/ml DAPI (ThermoFisher Scientific) to stain the cell nuclei. Cells were visualised on the Zeiss Axio Vert.A1 FL-LED inverted epifluorescence microscope (Zeiss) and images were captured using the ZEN Blue software (Zeiss).
# [4] = tested on: iTAG2 and DCD23-tagged chimeric antigen receptor (TE9-28-Z); assay: IMiD induced degradation of tagged CAR in transduced Jurkat cells; format: cell-based, human; settings: for time of drug treatment at which maximal reduction of surface expression is detectable: lenalidomide, pomalidomide, iberdomide
# Experimental: as §1
# (§2) CAR surface expression for transduction efficiency and degradation experiments in primary cells and cell lines was quantified using his-tagged B7H3 protein in combination with anti his-tagged fluorescent antibody (J095G45, BioLegend), and directly fluorescently labelled anti CD34 antibody (QBEnd10, R&D), using LSR2 cytometer. Analysis used Flo-Jo software.
# [5] = tested on: anti-B7H3 chimeric antigen receptor (TE9); assay: Cell surface expression of tagged CAR in transduced Jurkat and 293T cells by flow cytometry; format: cell-based, human; settings: for cell surface expression of tagged CAR relative to CD34 marker: transduced 293T and Jurkat cells, FIG. 6; for surface expression of tagged CARs: transduced Jurkat cells, 41BB and CD28 versions of TE9 CAR, FIG. 10
# Experimental: Initial experiments evaluated expression and degradation in human Jurat T cell leukaemia cells or human 293T cells, which were stably transduced with untagged, iTAG1(DCD23)-tagged, and iTAG2-tagged anti-B7H3 CAR-T cells. Here the relative expression of the CAR and the CD34 marker gene are determined by direct staining and evaluation by flow cytometry.
# Jurkat and 293T cell lines were grown in DMEM with 10% fetal calf serum and transduced with constructs containing CAR+/−degrader tag. Transduction efficiency was analysed 72 hours post transduction by flow cytometry, staining for the CD34 epitope encoded by the RQR8 gene.
# as §2
# [6] = molecular target: T1, CRBN/DDB1 complex (Homo sapiens, UniProt Q96SW2); assay: Size exclusion chromatography of CRBN/DDB1 and iTAG2 with or without iberdomide; format: binding; settings: 15 μM CRBN/DDB1, 50 μM iTAG2, 100 μM iberdomide, FIG. 14
# T1 construct: made in house
# T1 sequence (Q96SW2 whole entry, one chain of several): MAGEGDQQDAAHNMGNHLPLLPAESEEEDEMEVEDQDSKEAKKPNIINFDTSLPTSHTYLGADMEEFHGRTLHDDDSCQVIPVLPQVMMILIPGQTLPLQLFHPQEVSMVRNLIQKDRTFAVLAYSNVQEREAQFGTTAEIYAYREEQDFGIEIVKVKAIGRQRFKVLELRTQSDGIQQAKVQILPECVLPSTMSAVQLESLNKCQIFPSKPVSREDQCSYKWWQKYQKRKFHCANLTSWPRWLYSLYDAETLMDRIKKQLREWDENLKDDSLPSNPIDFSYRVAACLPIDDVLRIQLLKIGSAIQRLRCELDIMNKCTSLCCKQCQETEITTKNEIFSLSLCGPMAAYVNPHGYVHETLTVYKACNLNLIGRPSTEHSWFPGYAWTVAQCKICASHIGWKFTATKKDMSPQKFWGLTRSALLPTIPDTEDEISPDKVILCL
# T1 sequence (Q16531 2-1140 partner, one chain of several): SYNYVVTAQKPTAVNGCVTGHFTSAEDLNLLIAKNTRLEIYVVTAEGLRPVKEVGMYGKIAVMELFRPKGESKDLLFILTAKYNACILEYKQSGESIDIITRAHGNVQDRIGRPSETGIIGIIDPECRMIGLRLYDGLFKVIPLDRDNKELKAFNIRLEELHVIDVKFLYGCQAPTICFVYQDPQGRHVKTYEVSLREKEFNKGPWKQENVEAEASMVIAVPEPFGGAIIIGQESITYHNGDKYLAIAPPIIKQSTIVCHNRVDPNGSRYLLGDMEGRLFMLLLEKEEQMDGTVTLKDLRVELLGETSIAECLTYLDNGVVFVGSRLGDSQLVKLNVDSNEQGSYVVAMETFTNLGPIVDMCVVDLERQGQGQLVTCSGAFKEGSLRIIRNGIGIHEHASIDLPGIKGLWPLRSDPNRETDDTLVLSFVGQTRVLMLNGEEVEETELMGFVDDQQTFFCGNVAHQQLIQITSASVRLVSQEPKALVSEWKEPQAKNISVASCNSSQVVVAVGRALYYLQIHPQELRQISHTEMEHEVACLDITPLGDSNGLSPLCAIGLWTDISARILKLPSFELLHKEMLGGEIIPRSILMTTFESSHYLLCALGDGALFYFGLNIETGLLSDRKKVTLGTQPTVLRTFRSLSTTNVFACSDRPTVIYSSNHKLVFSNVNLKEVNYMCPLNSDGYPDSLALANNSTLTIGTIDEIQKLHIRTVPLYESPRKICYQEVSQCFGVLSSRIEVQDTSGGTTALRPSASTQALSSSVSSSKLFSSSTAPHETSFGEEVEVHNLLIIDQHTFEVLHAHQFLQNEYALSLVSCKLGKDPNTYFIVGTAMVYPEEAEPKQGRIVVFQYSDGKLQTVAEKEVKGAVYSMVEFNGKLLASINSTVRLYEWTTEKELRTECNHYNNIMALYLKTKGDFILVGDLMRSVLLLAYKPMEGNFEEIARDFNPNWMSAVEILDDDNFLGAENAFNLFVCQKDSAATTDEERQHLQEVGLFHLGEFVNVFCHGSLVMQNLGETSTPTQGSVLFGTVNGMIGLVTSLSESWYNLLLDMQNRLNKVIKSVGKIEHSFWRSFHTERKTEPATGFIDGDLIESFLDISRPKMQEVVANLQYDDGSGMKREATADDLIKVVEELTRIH
# Excerpt: Biochemical evidence for IMiD-dependent formation of a direct interaction between iTAG2 and the CRBN/DDB1 complex was generated using size exclusion chromatography (SEC). Purified CRBN/DDB1 protein complex and iTAG2 protein were mixed together and subjected to SEC in the presence or absence of iberdomide, shown in FIG. 14. The SEC peak 1 corresponding to the higher molecular weight species was shifted towards a lower elution time in the presence of iberdomide, with a slight increase in the optical density at 280 nm, which is consistent with the formation of a larger complex in the presence of iberdomide (FIG. 14A). SDS-PAGE analysis of representative fractions of the SEC analysis in the absence of iberdomide confirmed that the SEC peak 1 contains only DDB1 and CRBN proteins, with iTAG2 only present in the SEC peak 2 (FIG. 14B).
# SEC was performed using a Superose 6 5/150 GL column (Cytiva Life Sciences) mounted on an Agilent 1260 Infinity II LC System HPLC system. […] 100 μL fractions were collected and samples spanning the elution peaks were analysed by SDS-PAGE on precast NuPAGE 4-12% Bis-Tris gels (Invitrogen) using standard protocols, with SeeBlue Plus2 pre-stained protein standards (Invitrogen) loaded on the first lane of each gel.
# [7] = tested on: TE9-28-Z CAR; assay: IMiD induced degradation and re-expression of tagged CAR in primary human T cells; format: cell-based
# Excerpt: The re-expression of degraded chimeric antigen receptors following removal of the degrader drug is important for the CAR-T cell to be able to toggle between active and resting states, thereby allowing additional therapeutic manipulation and fine-tuning.
# To evaluate the general functionality of the TE9-28Z-iTAG2 anti-B7H3 CAR-T construct when expressed from a different viral vector, driven by alternate promoter, the construct was cloned into third generation lentivector pCLL2 backbone and viral supernatant was generated by transient transfection of 293T cells, with virus pseudotyped with VSV-G. Two versions of the TE9-28Z-iTAG2 sequence were evaluated in this format, which were with and without codon optimisation and removal of cloning scars. There are no differences in amino acid sequence of iTAG2 between original (construct 3) and codon optimised (construct 4) versions (FIG. 16 a and b). […] The log reduction in CAR expression as expressed as geometric median fluorescence intensity (gMFI) was highly consistent. […]
# PBMC-derived T cells from 2 healthy donor blood cones were cultured following CD56 depletion (day0) which was performed using Miltenyi CD56 depletion beads and magnetic negative selection using LD columns according to manufacturer's instructions. […] Transduction efficiency was assessed 4 days post transduction by flow cytometry staining for RQR8 and CAR expression.
# CAR expression in PBMC-derived T cells following degradation with 10, 1, 0.1, 0.01, 0.001 or 0 uM iberdomide after 24 hours, was assessed by flow cytometry. […] Supernatant was harvested, and IL-2 and IFNγ levels determined by ELISA.
# as §2, with “Analysis used Flo-Jo software.” left out
# [8] = molecular target: T2, complexes formed between CRBN/DDB1 and IMiDs (Homo sapiens, UniProt Q96SW2); assay: Aiolos peptide-based TR-FRET assay; format: binding; settings: IMiDs at 10 μM
# T2 construct: 5 nM WT full length CRBN/DDB1 complex; made in house
# T2 sequence (Q96SW2 whole entry): as the sequence (Q96SW2 whole entry, one chain of several) above
# T2 sequence (Q16531 whole entry partner): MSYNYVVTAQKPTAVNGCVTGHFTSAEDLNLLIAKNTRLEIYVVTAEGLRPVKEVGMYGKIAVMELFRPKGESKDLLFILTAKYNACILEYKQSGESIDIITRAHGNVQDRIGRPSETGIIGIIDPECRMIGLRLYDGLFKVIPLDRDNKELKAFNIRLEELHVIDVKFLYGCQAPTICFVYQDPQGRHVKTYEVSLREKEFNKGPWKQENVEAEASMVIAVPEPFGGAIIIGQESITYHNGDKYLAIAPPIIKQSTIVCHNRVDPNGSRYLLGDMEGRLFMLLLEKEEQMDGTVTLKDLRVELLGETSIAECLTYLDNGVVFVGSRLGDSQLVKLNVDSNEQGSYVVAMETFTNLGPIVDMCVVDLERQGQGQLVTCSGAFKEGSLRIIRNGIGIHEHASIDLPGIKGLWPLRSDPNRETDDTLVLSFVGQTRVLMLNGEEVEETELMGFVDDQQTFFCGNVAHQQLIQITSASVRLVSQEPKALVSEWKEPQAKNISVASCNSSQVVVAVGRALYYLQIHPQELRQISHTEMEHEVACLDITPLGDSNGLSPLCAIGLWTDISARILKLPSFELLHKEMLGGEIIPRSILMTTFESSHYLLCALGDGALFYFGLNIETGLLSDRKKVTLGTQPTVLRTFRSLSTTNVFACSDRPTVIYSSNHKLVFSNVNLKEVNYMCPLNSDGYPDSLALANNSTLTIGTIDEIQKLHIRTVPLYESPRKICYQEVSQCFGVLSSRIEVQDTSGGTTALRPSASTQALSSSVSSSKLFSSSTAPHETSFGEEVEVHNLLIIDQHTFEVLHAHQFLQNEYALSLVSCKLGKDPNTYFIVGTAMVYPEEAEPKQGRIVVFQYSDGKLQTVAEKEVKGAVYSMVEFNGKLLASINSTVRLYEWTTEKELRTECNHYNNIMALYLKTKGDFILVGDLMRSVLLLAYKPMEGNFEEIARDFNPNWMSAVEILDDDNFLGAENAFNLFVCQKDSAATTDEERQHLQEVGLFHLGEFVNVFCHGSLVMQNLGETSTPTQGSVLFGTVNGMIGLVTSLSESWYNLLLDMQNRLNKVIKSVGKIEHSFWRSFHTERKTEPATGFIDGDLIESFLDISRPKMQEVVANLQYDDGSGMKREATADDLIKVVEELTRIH
# Experimental: A schematic representation of the Aiolos peptide-based time resolved-Förster resonance energy transfer (TR-FRET) assay is presented in FIG. 11. […] The results are presented in FIG. 12, including the IC50s calculated from the TR-FRET curves. Overall, the IC50s obtained for iTAG2 were higher than those obtained for iTAG1 with about a 10-fold difference.
# All TR-FRET assays were ran in Black 384-well ProxiPlate Plus (Perkin-Elmer, USA), in a buffer containing 20 mM HEPES pH 8.0, 150 mM NaCl, 0.5 mM TCEP, 0.05% Tween 20 and 0.05% BSA, with a final assay volume of 10 μL. An Echo E550 (Beckman Coulter, USA) acoustic liquid dispenser was used to create final concentration ranges from 82 μM down to 2.05 nM for iTAG1 and 27 μM down to 0.68 nM for iTAG2. Final concentrations of 5 nM WT full length CRBN/DDB1 complex, 750 nM Sulfo-Cy5 fluorescent Aiolos-based peptidic probe (Cambridge Research Biochemicals, UK), 750 nM Zn(OAc)^2 and 0.5 nM MAb Anti-6HIS-Terbium cryptate Gold (Cisbio, France) were added with a Tempest liquid handler (Formulatrix, USA). Finally, IMiDs were added to a final concentration of 10 μM with the Echo. Plates were sealed, centrifuged at 200 g for 1 min and stored overnight at 4° C. The TR-FRET signals were read using a PHERAstar FSX plate reader (BMG Labtech, Germany). Final signal was measured as the ratio: […]
# [9] = 1:1 with SupT1-B7H3, overnight, ELISA, FIG. 9
molecule,measurement,setting,value
iTAG1: 60 amino acid degron tag based on a chimeric sequence of Ikaros and ZFP91 (PNVLMVHKRSHTGERPLQCEICGFTCRQKGNLLRHIKLHSGEKPFKCHLCNYACRRRDAL),drug-induced degradation of DCD tag,[1],induces acute target degradation in vitro and in vivo
same,reduced IL-2 secretion compared with iTAG2 fusion protein,[2]; [9],approximately 30 fold
same,"reduced effector function compared with iTAG2 fusion protein, interferon gamma secretion",[2]; [9],approximately 5 fold
same,nuclear accumulation / localisation of tagged EGFP/GFP,[3],predominant nuclear localisation
same,time of drug treatment at which maximal reduction of surface expression is detectable,[4],4 h
same,cell surface expression of tagged CAR relative to CD34 marker,[5],relatively poor cell surface expression
same,surface expression of tagged CARs,[5],weak surface expression
"iTAG2: mutated iTAG1 degron tag, SEQ ID NO: 43, PNVLMVHNESHTGEIPLQCEICGFTCEQAGNLLNHIELHSGEIPFKCHLCNYACRRRDAL (iTAG2)","antigen-dependent reactivity, superiority over DCD23-tagged CAR-T",[2],approximately 10 fold
same,effector function compared with untagged CAR,"[2]; SupT1-B7H3, FIG. 9",not significantly different to untagged CAR
same,nuclear accumulation / localisation of tagged EGFP/GFP,[3],abolished nuclear accumulation; also recorded: cytoplasmic localisation
same,time of drug treatment at which maximal reduction of surface expression is detectable,[4],4 h
same,complex formation by SEC and SDS-PAGE,[6],"formation of a complex between DDB1, CRBN and iTAG2 in the presence of iberdomide"
same,cell surface expression of tagged CAR relative to CD34 marker,[5],superior cell surface expression
same,surface expression of tagged CARs,[5],same expression as wild type
same,CAR re-expression after drug washout,"[7]; washed in PBS, rested 24 h in RPMI1640, FIG. 15",re-upregulated after IMiD washout
"SuperDegron: prototypic zinc finger-based 60 amino acid degron, hybrid of ZFP91 and IKZF3 (WO2019089592) (FNVLMVHKRSHTGERPLQCEICGFTCRQKGNLLRHIKLHTGEKPFKCHLCNYACQRRDAL; SuperDegron) [reference compound]",nuclear accumulation / localisation of tagged EGFP/GFP,[3],strong nuclear localisation
same,surface expression of tagged CARs,[5],weak surface expression
"O=C1CC[C@H](N2Cc3c(OCc4ccc(CN5CCOCC5)cc4)cccc3C2=O)C(=O)N1 [Iberdomide/ CC220, Iberdomide]",drug concentration at which nearly maximal downregulation is observed,"[4]; iTAG1(DCD23) and iTAG2 tagged CAR, FIG. 7",0.01 µM
same,"potency for degradation among lenalidomide, pomalidomide and iberdomide","[4]; tagged CAR, FIG. 7",highest potency
same,"relative affinity of iTAG1 and iTAG2 for CRBN/DDB1-IMiD complex, order of IMiDs",[8],tightest binding
same,optimal IMiD concentration to mediate CAR downregulation upon treatment and re-upregulation upon withdrawal,"[7]; TE9-iTAG2 CAR-T, overnight treatment, wash, 24 h rest, FIG. 15",0.01 µM
same,CAR expression after drug treatment,"[7]; primary human T cells, 10 uM iberdomide for 24 hours, FIG. 8",near complete loss of expression of the brightly expressed CAR population
